Reference: US20130102595A1 (Curis, Inc., priority 2011, published 2013)

How the values were obtained:
A549 = assay: Cell proliferation assay (CellTiter-Glo); type: cell-based; conditions: Homo sapiens, NSCLC, 72 hours, 0.5% fetal bovine serum, read-out: antiproliferative activity IC50, A549
Method in brief: (§1)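 Inhibition of growth was assessed as loss of ATP signal; cultures at 5,000–10,000 cells per well received serial compound doses for 72 h with 0.5% FBS, then were lysed for 30 min before luminescence reading.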

CFPAC-1 = assay: Cell proliferation assay (CellTiter-Glo); type: cell-based; conditions: Homo sapiens, Pancreas, 72 hours, 0.5% fetal bovine serum, read-out: antiproliferative activity IC50, CFPAC-1
Method in brief: as §1

CaPan1 = assay: Cell proliferation assay (CellTiter-Glo); type: cell-based; conditions: Homo sapiens, CAPAN-1; Pancreas; 72 hours, 0.5% fetal bovine serum; read-out: antiproliferative activity IC50, CaPan1
Method in brief: as §1

CaPan2 = assay: Cell proliferation assay (CellTiter-Glo); type: cell-based; conditions: Homo sapiens, Capan-2; Pancreas; 72 hours, 0.5% fetal bovine serum; read-out: antiproliferative activity IC50, CaPan2
Method in brief: as §1

Calu6 = assay: Cell proliferation assay (CellTiter-Glo); type: cell-based; conditions: Homo sapiens, Calu-6; NSCLC; 72 hours, 0.5% fetal bovine serum; read-out: antiproliferative activity IC50, Calu6
Method in brief: as §1

H2122 = assay: Cell proliferation assay (CellTiter-Glo); type: cell-based; conditions: Homo sapiens, NCI-H2122; NSCLC; 72 hours, 0.5% fetal bovine serum; read-out: antiproliferative activity IC50, H2122
Method in brief: as §1

H292 = assay: Cell proliferation assay (CellTiter-Glo); type: cell-based; conditions: Homo sapiens, NCI-H292; NSCLC; 72 hours, 0.5% fetal bovine serum; read-out: antiproliferative activity IC50, H292
Method in brief: as §1

H358 = assay: Cell proliferation assay (CellTiter-Glo); type: cell-based; conditions: Homo sapiens, NCI-H358; NSCLC; 72 hours, 0.5% fetal bovine serum; read-out: antiproliferative activity IC50, H358
Method in brief: as §1

H460 = assay: Cell proliferation assay (CellTiter-Glo); type: cell-based; conditions: Homo sapiens, NCI-H460; NSCLC; 72 hours, 0.5% fetal bovine serum; read-out: antiproliferative activity IC50, H460
Method in brief: as §1

HCT116 = assay: Cell proliferation assay (CellTiter-Glo); type: cell-based; conditions: Homo sapiens, HCT-116; Colon; 72 hours, 0.5% fetal bovine serum; read-out: antiproliferative activity IC50, HCT116
Method in brief: as §1

LN-Cap = assay: Cell proliferation assay (CellTiter-Glo); type: cell-based; conditions: Homo sapiens, LNCaP; Prostate; 72 hours, 0.5% fetal bovine serum; read-out: antiproliferative activity IC50, LN-Cap
Method in brief: as §1

MDA-MB-231 = assay: Cell proliferation assay (CellTiter-Glo); type: cell-based; conditions: Homo sapiens, Breast, 72 hours, 0.5% fetal bovine serum, read-out: antiproliferative activity IC50, MDA-MB-231
Method in brief: as §1

MiaPaca1 = assay: Cell proliferation assay (CellTiter-Glo); type: cell-based; conditions: Pancreas; 72 hours, 0.5% fetal bovine serum; read-out: antiproliferative activity IC50, MiaPaca1
Method in brief: as §1

OPM-2 = assay: Cell proliferation assay (CellTiter-Glo); type: cell-based; conditions: Homo sapiens, Multiple Myeloma, 72 hours, 0.5% fetal bovine serum, read-out: antiproliferative activity IC50, OPM-2
Method in brief: as §1

OVCAR-5 = assay: Cell proliferation assay (CellTiter-Glo); type: cell-based; conditions: Homo sapiens, Ovarian, 72 hours, 0.5% fetal bovine serum, read-out: antiproliferative activity IC50, OVCAR-5
Method in brief: as §1

PANC-1 = assay: Cell proliferation assay (CellTiter-Glo); type: cell-based; conditions: Homo sapiens, Pancreas, 72 hours, 0.5% fetal bovine serum, read-out: antiproliferative activity IC50, PANC-1
Method in brief: as §1

PC-3 = assay: Cell proliferation assay (CellTiter-Glo); type: cell-based; conditions: Homo sapiens, Prostate, 72 hours, 0.5% fetal bovine serum, read-out: antiproliferative activity IC50, PC-3
Method in brief: as §1

SW1990 = assay: Cell proliferation assay (CellTiter-Glo); type: cell-based; conditions: Homo sapiens, Pancreas, 72 hours, 0.5% fetal bovine serum, read-out: antiproliferative activity IC50, SW1990
Method in brief: as §1

SW403 = assay: Cell proliferation assay (CellTiter-Glo); type: cell-based; conditions: Homo sapiens, SW-403; Colon; 72 hours, 0.5% fetal bovine serum; read-out: antiproliferative activity IC50, SW403
Method in brief: as §1

SW620 = assay: Cell proliferation assay (CellTiter-Glo); type: cell-based; conditions: Homo sapiens, SW-620; Colon; 72 hours, 0.5% fetal bovine serum; read-out: antiproliferative activity IC50, SW620
Method in brief: as §1

SWI-116 = assay: Cell proliferation assay (CellTiter-Glo); type: cell-based; conditions: Colon; 72 hours, 0.5% fetal bovine serum; read-out: antiproliferative activity IC50, SWI-116
Method in brief: as §1

T-84 = assay: Cell proliferation assay (CellTiter-Glo); type: cell-based; conditions: Homo sapiens, T84; Colon; 72 hours, 0.5% fetal bovine serum; read-out: antiproliferative activity IC50, T-84
Method in brief: as §1

WiDr = assay: Cell proliferation assay (CellTiter-Glo); type: cell-based; conditions: Homo sapiens, Colon, 72 hours, 0.5% fetal bovine serum, read-out: antiproliferative activity IC50, WiDr
Method in brief: as §1

glioblastoma xenografts = conditions: oral dosage; cited from earlier work
[1] = tested on: HDACs (HeLa cell nuclear extracts); assay: HDAC enzymatic activity, Biomol Color de Lys system; type: biochemical; conditions: 1 hour, 25° C.
Method in brief: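 IC50 from sigmoidal fit of developer-terminated fluorescence (ex 350-380/em 440-460 nm). Reaction: 1 h at room temperature (25 °C), HeLa nuclear extract as HDAC source, artificial substrate, buffer of 50 mM Tris/Cl pH 8.0 with 137 mM NaCl, 2.7 mM KCl and 1 mM MgCl2.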

[2] = molecular target: T1, mTor serine/threonine protein kinase (Homo sapiens, UniProt P42345); assay: mTor kinase radioisotope assay; type: biochemical; conditions: 70 uM ATP, 40 minutes; read-out: m-TOR IC50
T1 construct: FLAG; made in house; host or cells: Baculovirus expression system in Sf21 cells
Method in brief: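 FLAG-tagged full-length recombinant human mTor from baculovirus/Sf21, incubated with p70S6K C-terminal fragment (2 mg/ml) and 70 uM ATP plus 33P-ATP tracer in 50 mM HEPES pH 7.5, 3 mM MnCl2, 40 min at room temperature. Phosphoric acid stop, filtermat capture, scintillation counting; IC50 from sigmoidal dose-response fit.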

Compound | IC50 (A549) | IC50 (CFPAC-1) | IC50 (CaPan2) | IC50 (Calu6) | IC50 (H2122) | IC50 (H292) | IC50 (H358) | IC50 (H460) | IC50 (HCT116) | IC50 (MiaPaca1) | IC50 (OPM-2) | IC50 (PANC-1) | IC50 (SW1990) | IC50 (SW403) | IC50 (SW620) | IC50 (SWI-116) | IC50 (T-84) | IC50 (WiDr) | other results
CS(=O)(=O)N1CCN(Cc2cc3nc(-c4cccc5[nH]ncc45)nc(N4CCOCC4)c3s2)CC1 [GDC-0941, reference compound] | 0.1 to 1 µM | 1 to 10 µM | 1 to 10 µM | 1 to 10 µM | 1 to 10 µM | 1 to 10 µM | 1 to 10 µM | 0.1 to 1 µM | 0.1 to 1 µM | 1 to 10 µM | 0.1 to 1 µM | 1 to 10 µM | 1 to 10 µM | 1 to 10 µM | 0.1 to 1 µM | 0.1 to 1 µM | 1 to 10 µM | 0.1 to 1 µM | IC50 (CaPan1): 1 to 10 µM; IC50 (LN-Cap): 0.1 to 1 µM; IC50 (MDA-MB-231): > 10 µM; IC50 (OVCAR-5): 0.1 to 1 µM; IC50 (PC-3): 1 to 10 µM; effect in glioblastoma xenografts in vivo (glioblastoma xenografts): tumor suppression
COc1ccc(-c2nc(N3CCOCC3)c3sc(CN(C)c4ncc(C(=O)NO)cn4)cc3n2)cn1 [Compound 236, N-Hydroxy-2-(((2-(6-methoxypyridin-3-yl)-4-morpholinothieno[3,2-d]pyrimidin-6-yl)methyl)(methyl)amino)pyrimidine-5-carboxamide] | 0.01 to 0.1 µM | 0.01 to 0.1 µM | 0.01 to 0.1 µM | 0.01 to 0.1 µM | < 0.01 µM | < 0.01 µM | < 0.01 µM | 0.01 to 0.1 µM | < 0.01 µM | 0.01 to 0.1 µM | < 0.01 µM | 0.01 to 0.1 µM | < 0.01 µM | < 0.01 µM | < 0.01 µM | < 0.01 µM | 0.01 to 0.1 µM | 0.01 to 0.1 µM | IC50 [1]: < 0.1 µM; IC50 [2]: 1 to 10 µM
